{
  "source": "ChEMBL document CHEMBL5726197",
  "about": "“Oxoazetidine derivatives, process for the preparation thereof and use thereof in human medicine and in cosmetics” (2017)",
  "key": {"Melanocortin receptor 4": {"target": "Melanocortin receptor 4 (Homo sapiens, UniProt P32245)", "sequence (P32245 whole entry)": "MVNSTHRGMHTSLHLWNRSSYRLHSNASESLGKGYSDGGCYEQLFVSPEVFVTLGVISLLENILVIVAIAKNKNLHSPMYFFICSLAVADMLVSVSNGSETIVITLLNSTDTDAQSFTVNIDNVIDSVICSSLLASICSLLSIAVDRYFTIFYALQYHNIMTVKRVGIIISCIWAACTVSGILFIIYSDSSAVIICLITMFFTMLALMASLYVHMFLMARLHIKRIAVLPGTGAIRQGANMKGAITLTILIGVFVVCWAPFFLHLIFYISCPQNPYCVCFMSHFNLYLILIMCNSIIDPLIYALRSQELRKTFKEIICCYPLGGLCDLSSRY", "experiment": "(§1) Transactivation Assay: In the presence of an activator (agonist), the melanocortin receptor will activate the cAMP pathway which, via the CRE-Luc vector, will result in the synthesis of luciferase. After the addition of a lysis buffer containing a luminescent substrate for luciferase, it will be possible to measure the luminescence proportional to the degree of activation or of inhibition of the receptor. The products are solubilized at 10 mM in DMSO. They are tested in the form of dose-response at a final DMSO concentration of 0.1%. The range comprising 10 points and one zero begins at 10 μM with 4-fold dilutions. For testing agonists, the products are tested alone. For determining the behaviour of antagonists, the products of interest are tested in the presence of 1 nM NDP-MSH (reference agonist). The cells are seeded at a rate of 5000 cells per well (384 well plate) in serum-free DMEM medium, and incubated overnight at 37° C., 5% CO2.The products and the reference ligand (NDP-MSH) are added the following day, and the plates are again incubated for 6 h at 37° C., 5% CO2. After the addition of lysis buffer containing luciferin, the plates are read on a Top-Count instrument. The results are standardized as % activity using the 100% (cells+NDP-MSH at 10 nM) and 0% (cells alone) controls. An EC50 is calculated for each product using the XLFit software. The results are given in nM. […]"}, "[1]": {"target": "Melanocyte-stimulating hormone receptor (Homo sapiens, UniProt Q01726)", "sequence (Q01726 whole entry)": "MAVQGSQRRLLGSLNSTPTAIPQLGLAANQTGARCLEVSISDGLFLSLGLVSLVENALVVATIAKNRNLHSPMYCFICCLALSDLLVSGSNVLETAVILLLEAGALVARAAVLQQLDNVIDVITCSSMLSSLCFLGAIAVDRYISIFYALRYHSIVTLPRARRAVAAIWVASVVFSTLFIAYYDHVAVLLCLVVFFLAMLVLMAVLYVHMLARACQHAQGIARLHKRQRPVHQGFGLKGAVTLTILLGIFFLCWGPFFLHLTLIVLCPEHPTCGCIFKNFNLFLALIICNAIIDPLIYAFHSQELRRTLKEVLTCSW", "experiment": "as §1"}},
  "data": [
    {"smiles": "CCCCCC1(c2ccccc2OC)CN(C(=O)[C@@H](Cc2ccc(OC)cc2)NC(=O)CCc2c[nH]cn2)C1", "values": [
      {"measurement": "EC50", "setting": "Melanocortin receptor 4", "result": 30, "unit": "nM"},
      {"measurement": "EC50", "setting": "[1]", "result": 60, "unit": "nM"}
    ]}
  ]
}
